Measurements published in US20140127705A1, “METHOD FOR SCREENING SUBSTANCES HAVING WEIGHT-REGULATING ACTION” (priority 2011, published 2014).

Tested on: 3T3-L1 cells
Experiment: Induction of adipocyte differentiation in 3T3-L1 cells, Oil Red O staining
Type: cell-based
Conditions: 10 μM LS-102 added at induction of differentiation (IBMX, dexamethasone, insulin) and again at the medium change, DMSO control, microscope (FIG. 5)
Description: 3T3-L1 cells were cultured for 3 days after reaching confluence in DMEM (10% FBS, High Glucose). Differentiation was induced by adding 500 μM IBMX, 1 μM dexamethasone and 5 μg/ml of insulin. 10 μM LS-102 (synoviolin ubiquitination activity inhibitor) or DMSO were added at the same time. After culturing for 3 days, the medium was replaced with medium containing 4 μg/ml of insulin followed by the addition of 10 μM LS-102 or DMSO. After again culturing for 3 days, the medium was replaced with DMEM (10% FES, High Glucose) followed by additionally culturing for 3 days. With respect to siRNA, 200 pmol of siRNA Syno770 was introduced using Lipofectamine 2000 two days prior to inducing differentiation.
After washing the 3T3-L1 cells with PBS(−), the cells were fixed with 10% formalin. The cells were then washed with PBS(−) and transferred to 60% isopropanol. The cells were stained for 20 minutes with 18 mg/ml of Oil Red O/Isopropanol and then washed with 60% isopropanol and PBS(−) followed by observing with a microscope.

CCNCCN(CC)c1nc(Nc2ccc3ncoc3c2)nc(N[C@@H](C)C2CCCCC2)n1 [LI102]
number of differentiated adipocytes in comparison with the control: the number of differentiated adipocytes was lower in comparison with the control
